From article PMC4697807, “Novel Zn^2+ Modulated GPR39 Receptor Agonists Do Not Drive Acute Insulin Secretion in Rodents” (PLoS ONE, 2015)
Where two headings read alike, the source gives them in different places.

Experiments:
GPR39 = molecular target: T1, GPR39 (Homo sapiens, UniProt O43194); assay: cAMP assay (HTRF), HEK293s-hGPR39 cells; assay type: cell-based; set-up: Full length human (AF034633), rat (DM091294) and mouse (BC085285) GPR39; expressed in transfected cells; host or cells: HEK293s (ATCC CRL-1573), pIRESneo3 vector, selected clones; settings: for Efficacy at 33 μM: AZ1395 100% reference
T1 sequence (O43194 1-453): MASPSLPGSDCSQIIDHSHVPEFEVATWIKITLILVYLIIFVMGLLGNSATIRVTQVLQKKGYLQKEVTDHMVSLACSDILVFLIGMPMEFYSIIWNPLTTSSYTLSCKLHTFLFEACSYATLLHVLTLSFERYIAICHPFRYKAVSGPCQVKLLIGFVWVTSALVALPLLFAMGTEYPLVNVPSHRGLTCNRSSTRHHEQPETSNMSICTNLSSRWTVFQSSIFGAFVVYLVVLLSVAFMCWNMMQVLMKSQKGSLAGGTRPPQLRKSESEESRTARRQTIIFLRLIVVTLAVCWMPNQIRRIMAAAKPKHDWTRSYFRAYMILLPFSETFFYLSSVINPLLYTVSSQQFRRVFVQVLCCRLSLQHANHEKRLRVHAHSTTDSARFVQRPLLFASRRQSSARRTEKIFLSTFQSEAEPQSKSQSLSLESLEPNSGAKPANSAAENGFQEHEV
From the text: (§1) Full length human (AF034633), rat (DM091294) and mouse (BC085285) GPR39 (GeneArt–Life Technologies, Carlsbad, CA) were subcloned into the pIRESneo3 vector (Clontech, Mountain View, CA). The resulting expression vectors hGPR39-, rGPR39- and mGPR39-pIRESneo3 were transfected into HEK293s cells (ATCC CRL-1573) using Lipofectamine 2000 (Life Technologies). Individual clones were isolated using flow cytometry with a FACSVantage SE DIVA (Becton Dickinson, Franklin Lakes, NJ) and clones were chosen based on responses to Zn^2+ measured in a cAMP assay (see below). […] HEK293s-derived cell lines were cultured at 37°C, 10% CO2 and 95% humidity in DMEM supplemented with 10% FBS and 600 μg/ml Geneticin (Life Technologies). The mouse pancreas epithelial cell line NIT-1 (ATCC CRL-2055) with endogenous expression of GPR39 was cultured at 37°C, 5% CO2, and 95% humidity in Ham´s F12 (Life Technologies) supplemented with 10% FBS.
Measurements of cAMP production were performed using homogeneous time resolved fluorescence (HTRF) cAMP dynamic kits (CisBio, Codolet, France). All buffers and reagents were according to manufacturer’s protocol. In short, 0.1 μl of compounds in DMSO were added to small-volume 384-well plates (Greiner, Frickenhausen, Germany). 12,000 (5 μl) cells in Hank’s balanced salt solution (HBSS) (Life Technologies) and 20 mM HEPES (pH7.4; Life Technologies) were added per well. The production of cAMP was stimulated for 75 min at 37°C by addition of 5 μl 3-isobutyl-1-methylxanthine (0.375 mM final concentration; Sigma-Aldrich, St Louis, MO) and ZnCl2 (0 to 30 μM; Sigma). The reaction was stopped by addition of 5 μl cAMP-d2 and 5 μl anti-cAMP cryptate. The cAMP production was detected by HTRF (λex = 340 nm, λem = 665 and 615 nm) using a Pherastar (BMG Labtech, Ortenberg, Germany).
(§2) Concentration response data were fitted with a four parameter logistic fit using Eq 1, y=A+((B−A)/1+((C/x)^D))) (1) where A is no activation, B is full activation, C is the EC50 and D is the Hill slope.

GPR39 (NIT-1 cells) = molecular target: T2, GPR39 (NIT-1 cells) (Mus musculus, UniProt Q5U431); assay: IP1 assay in NIT-1 cells endogenously expressing GPR39; assay type: cell-based; settings: for Emax: read-out: Emax relative to the 100% efficacy reference AZ1395
T2 construct: NIT-1 cells endogenously expressing GPR39; endogenous in cells; host or cells: NIT-1 (ATCC CRL-2055)
T2 sequence (Q5U431 1-456): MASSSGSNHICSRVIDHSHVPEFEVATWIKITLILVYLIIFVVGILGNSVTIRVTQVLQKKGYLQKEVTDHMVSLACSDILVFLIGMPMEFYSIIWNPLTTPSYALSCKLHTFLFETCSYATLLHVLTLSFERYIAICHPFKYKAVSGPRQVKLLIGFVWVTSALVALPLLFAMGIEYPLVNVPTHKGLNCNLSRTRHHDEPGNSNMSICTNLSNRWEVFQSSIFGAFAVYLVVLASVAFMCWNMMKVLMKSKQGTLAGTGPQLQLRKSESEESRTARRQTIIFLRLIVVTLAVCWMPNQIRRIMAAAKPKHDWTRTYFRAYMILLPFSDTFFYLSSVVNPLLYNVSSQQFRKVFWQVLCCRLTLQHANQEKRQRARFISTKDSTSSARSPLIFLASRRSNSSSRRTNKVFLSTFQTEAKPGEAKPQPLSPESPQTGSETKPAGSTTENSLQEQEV
From the text: as §1
IP1 assays were performed using IP-One Tb kits (CisBio). IP1 production was detected by HTRF as described above. Buffers and reagents were according to manufacturers’ protocols except LiCl concentrations in stimulation buffer which were 50 mM in assays employing HEK293s-hGPR39 cells and 20 mM in assays using NIT-1 cells. For assays using HEK293s-hGPR39 cells, 12,500 cells per well were dispensed into small-volume 384-well plates (Greiner) and IP1 production was stimulated in the presence of compounds for 30 min at 37 °C in a total volume of 20 μl. For assays using NIT-1 cells, 25,000 cells per well were seeded into poly-D-lysine coated 384-well plates (Becton-Dickinson) and cultured in Ham´s F12 medium with 10% FBS. After 48 h, cells were washed with stimulation buffer and IP1 production stimulated in the presence of compounds for 45 min at 37 °C in a total volume of 60 μl.
as §2

[1] = absence (w/o) of Zn^2+, read-out: EC50
[2] = presence of 5 μM Zn^2+, read-out: EC50
[3] = presence of 5 μM Zn^2+, read-out: pEC50 ± SD (converted)
[4] = Zn^2+ by itself, read-out: EC50

Row | SMILES | Efficacy at 33 μM (GPR39; absence (w/o) of Zn^2+) [%] | EC50 (GPR39; [1]) [µM] | EC50 (GPR39; [2]) [µM] | Efficacy at 33 μM (GPR39 (NIT-1 cells); absence (w/o) of Zn^2+) [%] | EC50 (GPR39 (NIT-1 cells); [1]) [µM] | Efficacy at 33 μM (GPR39 (NIT-1 cells); presence of 5 μM Zn^2+) [%] | EC50 (GPR39 (NIT-1 cells); [2]) [µM] | EC50 (GPR39; [3]) [µM] | Emax (GPR39 (NIT-1 cells); presence of 5 μM Zn^2+) [%] | EC50 (GPR39 (NIT-1 cells); [3]) [µM] | pEC50 ± SD (GPR39; Zn^2+ by itself) | EC50 (GPR39; [4]) [µM] | Efficacy at 33 μM (GPR39 (NIT-1 cells); Zn^2+ by itself) [%] | agonistic effects (GPR39 (NIT-1 cells); Zn^2+ by itself) | EC50 (GPR39 (NIT-1 cells); [4]) [µM]
1 | N#Cc1ccc(OCCn2ccnc2)c(OCCn2ccnc2)c1 [AZ1395, 3,4-bis-(2-imidazol-1-ylethoxy)-benzonitrile] | 81 | > 33 | 0.49 | 0 | > 33 | 100 | > 33 | – | – | – | – | – | – | – | –
2 | Cc1nc2c(C(=O)O)cnn2c(O)c1Cc1ccc(Cl)cc1 [AZ4237, 6-[(4-chlorophenyl)methyl]-7-hydroxy-5-methyl-pyrazolo[1,5-a]pyrimidine-3-carboxylic acid] | 49 | > 33 | – | 8 | > 33 | – | – | 0.389 | 50 | 0.24 | – | – | – | – | –
3 | Cc1nc(-c2nc3c(c(=O)[nH]2)CN(C(=O)c2cccc(Cl)c2F)CC3)cs1 [AZ7914, 6-(3-chloro-2-fluoro-benzoyl)-2-(2-methylthiazol-4-yl)-3,5,7,8-tetrahydropyrido-[4,3-d]pyrimidin-4-one] | 21 | > 33 | – | 9 | > 33 | – | 0.65 | 2.29 | 47 | – | – | – | – | – | –
4 | [Zn+2] [Zn^2+] | – | – | – | – | – | – | – | – | – | – | (4.92 ± 0.13) | 12 | 0 | no agonistic effects | > 33
